Source: patent US9771602B2 (priority 2013, dated 2017)
pIC50, pKi: −log10 of the molar value. “And” between values parts separate entries of the source, which are not always exact repeats. Equal entries are not always repeated. Structures can show the parent of a compound that is named as a salt. Where two headings read alike, the source gives them in different places.

Assays:
[1] = test system: ethanologen yeast PNY 827; assay: microbe, parasite or virus in culture; assay type: cell-based, Saccharomyces cerevisiae; settings: for pKi: read-out: KI (inhibitory constant on growth)
[2] = test system: S. cerevisiae yeast strains PNY0860-1A, PNY827 and CEN.PK 113-7D; assay: Filter-disk growth inhibition assay with AHAS inhibitors on top agar plates; assay type: cell-based; settings: filter disks containing 20 μg or 10 μg AHAS inhibitor; 72 hours at 30° C.
[3] = test system: mixed cultures of ethanologen S. cerevisiae PNY 827 and the butanologen yeast S. cerevisiae PNY 2129; assay type: cell-based
[4] = test system: NYLA84 ILV2-410::loxP71/66 with pLH468 and pLH475-JEA1; assay type: cell-based, S. cerevisiae; settings: 0 μg/ml to 50 μg/ml sulfometuron methyl; strains expressing cytosolic acetolactate synthase
[5] = fit to squared inhibition kinetics
[6] = Saccharomyces cerevisiae, PNY827, read-out: IC50 on growth (inhibitor concentration with 50% μ°max)
[7] = fit to hybrid inhibition kinetics model

SMILES: Cc1cn[nH]c1.Cl [4-methylpyrazole hydrochloride]
- μ°max (fitted maximum specific growth rate without inhibitor) [1]: 0.58 L/h
- pKi [1, 5]: 1.39
- inhibitor-based mumax (corrected for effect of DMSO) ([1]; hydrochloride): 0.48 L/h and 0.38 L/h
- observed μmax ([1]; hydrochloride): 0.48 L/h and 0.24 L/h

SMILES: O=C(O)c1cn[nH]c1 [4-pyrazolecarboxylic acid]
- inhibitor-based mumax (corrected for effect of DMSO) [1]: 0.59 L/h and 0.50 L/h
- μ°max (fitted maximum specific growth rate without inhibitor) [1]: 0.60 L/h
- pKi [1, 5]: 1.00

SMILES: COc1cc(OC)nc(NC(=O)NS(=O)(=O)c2ncccc2C(=O)N(C)C)n1 [Accent, nicosulfuron methyl]
- zones of growth inhibition (inhibition of yeast growth) [2]: did not inhibit

SMILES: COC(=O)c1ccccc1S(=O)(=O)NC(=O)Nc1nc(C)nc(OC)n1 [Ally, metsulfuron methyl]
- zones of growth inhibition (inhibition of yeast growth) [2]: inhibit growth

SMILES: CCOC(=O)c1ccccc1S(=O)(=O)NC(=O)Nc1nc(Cl)cc(OC)n1 [Classic, chlorimuron ethyl]
- zones of growth inhibition (inhibition of yeast growth) [2]: inhibit growth

SMILES: C[S+](C)[O-] [DMSO]
- μmax (maximum specific growth rate) [1]: 0.56 L/h
- pKi [1]: ~1.80

SMILES: COC(=O)c1sccc1S(=O)(=O)NC(=O)Nc1nc(C)nc(OC)n1 [Harmony, thifensulfuron methyl]
- zones of growth inhibition (inhibition of yeast growth) [2]: did not inhibit

SMILES: O=C/C=C/c1ccccc1 [cinnamaldehyde, trans-cinnamaldehyde]
- DHIV + DHMB [3]: 0.0 mM
- ratio of butanol vs. ethanol produced compared with no addition ([3]; 250 μM, inoculum ratios 1:1 and 1:11, EPT=8 h and EPT=48 h): lower
- growth of mixed cultures ([3]; 25 mM, both mixed cultures (1:1 and 1:11), EPT=8 h and EPT=48 h): No growth
- inhibitor-based mumax (corrected for effect of DMSO) [1]: 0.64 L/h and 0.63 L/h and 0.55 L/h
- observed μmax [1]: 0.64 L/h and 0.63 L/h and 0.55 L/h
- μ°max (fitted maximum specific growth rate without inhibitor) [1]: 0.62 L/h
- pIC50 [1, 6]: 3.60
- pKi [1, 5]: 3.60
- cell growth ([1]; non-DMSO experiments: 200 mM, 100 mM, 50 mM, 25 mM, 10 mM, 1 mM): in none of the non-DMSO experiments any cell growth was observed

SMILES: C=O [formaldehyde]
- μ°max (fitted maximum specific growth rate without inhibitor) [1]: 0.59 L/h
- pIC50 [1, 6]: 3.05

SMILES: O=CC(=O)O [glyoxylic acid, glyoxylic acid sodium salt monohydrate]
- μ°max (fitted maximum specific growth rate without inhibitor) [1]: 0.60 L/h
- μmax (maximum specific growth rate) ([1]; sodium salt monohydrate): 0.59 L/h and 0.55 L/h

SMILES: c1cn[nH]c1 [pyrazole]
- DHIV + DHMB [3]: 0.0 mM
- butanol-to-ethanol ratio compared with no inhibitor ([3]; 3 mM and 30 mM, inoculum ratios 1:1 and 1:11, EPT=8 h): dramatically increased
- butanol:ethanol ratio compared with no inhibitor ([3]; 30 mM, both inoculum ratios, EPT=48 h): significantly increased
- overall observable μ°max [1]: 0.60 L/h
- μ°max 1 [1]: 0.52 L/h
- μ°max 2 [1]: 0.08 L/h
- pIC50 [1, 6]: 2.48
- pKi [1, 7]: 2.55

SMILES: O=S([O-])[O-].[Na+].[Na+] [sulfite, sodium sulfite]
- OD600corr [ ] [1]: 0.081 and 0.087 and 0.088 and 0.092
- OD600corr [ ] ([1]; 1 mM (F8-su-1), time 1.00 h): 0.082
- OD600corr [ ] ([1]; 1 mM (F8-su-1), time 2.25 h): 0.121
- OD600corr [ ] ([1]; 1 mM (F8-su-1), time 3.25 h): 0.185
- OD600corr [ ] ([1]; 1 mM (F8-su-1), time 4.25 h): 0.307
- OD600corr [ ] ([1]; 1 mM (F8-su-1), time 6.00 h): 1.102
- OD600corr [ ] ([1]; 1 mM (F8-su-1), time 23.67 h): 11.157
- μmax (maximum specific growth rate) ([1]; 1 mM inhibitor): 0.59 L/h
- OD600corr [ ] ([1]; 2 mM (F9-su-2), time 1.00 h): 0.086
- OD600corr [ ] ([1]; 2 mM (F9-su-2), time 2.25 h): 0.120
- OD600corr [ ] ([1]; 2 mM (F9-su-2), time 3.25 h): 0.173
- OD600corr [ ] ([1]; 2 mM (F9-su-2), time 4.25 h): 0.265
- OD600corr [ ] ([1]; 2 mM (F9-su-2), time 6.00 h): 0.887
- OD600corr [ ] ([1]; 2 mM (F9-su-2), time 23.67 h): 12.217
- μmax (maximum specific growth rate) ([1]; 2 mM inhibitor): 0.54 L/h
- OD600corr [ ] ([1]; 5 mM (F10-su-3), time 1.00 h): 0.090
- OD600corr [ ] ([1]; 5 mM (F10-su-3), time 2.25 h): 0.116
- OD600corr [ ] ([1]; 5 mM (F10-su-3), time 3.25 h): 0.153
- OD600corr [ ] ([1]; 5 mM (F10-su-3), time 4.25 h): 0.208
- OD600corr [ ] ([1]; 5 mM (F10-su-3), time 6.00 h): 0.392
- OD600corr [ ] ([1]; 5 mM (F10-su-3), time 9.58 h): 2.572
- OD600corr [ ] ([1]; 5 mM (F10-su-3), time 23.67 h): 11.717
- μmax (maximum specific growth rate) ([1]; 5 mM inhibitor): 0.33 L/h
- OD600corr [ ] ([1]; 10 mM (F11-su-4), time 1.00 h): 0.085
- OD600corr [ ] ([1]; 10 mM (F11-su-4), time 2.25 h): 0.111
- OD600corr [ ] ([1]; 10 mM (F11-su-4), time 3.25 h): 0.140
- OD600corr [ ] ([1]; 10 mM (F11-su-4), time 4.25 h): 0.175
- OD600corr [ ] ([1]; 10 mM (F11-su-4), time 6.00 h): 0.268
- OD600corr [ ] ([1]; 10 mM (F11-su-4), time 9.58 h): 1.102
- OD600corr [ ] ([1]; 10 mM (F11-su-4), time 23.67 h): 11.437
- μmax (maximum specific growth rate) ([1]; 10 mM inhibitor): 0.23 L/h
- OD600corr [ ] ([1]; 20 mM (F3-su-1), time 1.50 h): 0.099
- OD600corr [ ] ([1]; 20 mM (F3-su-1), time 2.67 h): 0.115
- OD600corr [ ] ([1]; 20 mM (F3-su-1), time 4.00 h): 0.150
- OD600corr [ ] ([1]; 20 mM (F3-su-1), time 5.33 h): 0.182
- OD600corr [ ] ([1]; 20 mM (F3-su-1), time 6.75 h): 0.226
- OD600corr [ ] ([1]; 20 mM (F3-su-1), time 9.42 h): 0.396
- OD600corr [ ] ([1]; 20 mM (F3-su-1), time 23.25 h): 9.697
- μmax (maximum specific growth rate) ([1]; 20 mM inhibitor): 0.18 L/h
- OD600corr [ ] ([1]; 50 mM (F4-su-2), time 1.50 h): 0.095
- OD600corr [ ] ([1]; 50 mM (F4-su-2), time 2.67 h): 0.116
- OD600corr [ ] ([1]; 50 mM (F4-su-2), time 4.00 h): 0.135
- OD600corr [ ] ([1]; 50 mM (F4-su-2), time 5.33 h): 0.161
- OD600corr [ ] ([1]; 50 mM (F4-su-2), time 6.75 h): 0.192
- OD600corr [ ] ([1]; 50 mM (F4-su-2), time 9.42 h): 0.295
- OD600corr [ ] ([1]; 50 mM (F4-su-2), time 23.25 h): 10.717
- μmax (maximum specific growth rate) ([1]; 50 mM inhibitor): 0.14 L/h
- μ°max 1 [1, 7]: 0.46 L/h
- μ°max 2 [1, 7]: 0.15 L/h
- pKi [1, 7]: 2.36
- overall observable μ°max ([1]; predicted by hybrid inhibition kinetics model): 0.61 L/h
- pIC50 ([1]; read-out: IC50 on growth (inhibitor concentration with 50% μ°max), derived from inhibition kinetics and fitted parameters): 2.21

SMILES: COC(=O)c1ccccc1S(=O)(=O)NC(=O)Nc1nc(C)cc(C)n1 [sulfometuron methyl]
- overall observable μ°max [1]: 0.59 L/h
- μmax (maximum specific growth rate) [1]: 0.04 L/h and 0.05 L/h
- μ°max 1 [1]: 0.55 L/h
- μ°max 2 [1]: 0.04 L/h
- pIC50 [1, 6]: > 4.00
- pKi [1, 7]: > 4.00
- zones of growth inhibition (inhibition of yeast growth) [2]: inhibit growth
- resistance (growth scored after overnight incubation) [4]: higher resistance
